Source: article PMC9530963, “A cathelicidin antimicrobial peptide from Hydrophis cyanocinctus inhibits Zika virus infection by downregulating expression of a viral entry factor” (The Journal of Biological Chemistry, 2022)

Key:
ZIKV [1] = test: Susceptibility of U251 cells to ZIKV (peptide pretreatment); type: cell-based, ZIKV strain PRVABC59; conditions: 1.25, 2.5, and 5 μM, 2 h before ZIKV MOI = 1; 24 h; Western blot
Method: Figure 5 Hc-CATH downregulates AXL in U251 cell.A, schematic diagram of B and C. B, U251 cells were seeded in 24-well plates (5 × 10^4 cells/well) and cultured in DMEM containing 2% FBS. Hc-CATH (1.25, 2.5, and 5 μM) or same volume of PBS (peptide solvent) was added to cells and incubated at 37 °C for 24 h. The level of AXL was tested by Western blot. C, U251 cells were seeded in 8-well cover slip chambers (5 × 10^4 cells/well) and cultured in DMEM containing 2% FBS. Hc-CATH (1.25, 2.5, and 5 μM) or PBS was added to cells and incubated at 37 °C for 24 h. The level of AXL was tested by immunofluorescence staining. The scale bar represents 50 μm. D, schematic diagram of E–G. E–G, U251 cells were seeded in 24-well plates (5 × 10^4 cells/well) and cultured in DMEM containing 2% FBS. Hc-CATH (1.25, 2.5, and 5 μM) or PBS was added to cells and incubated at 37 °C for 2 h. Cells were washed with PBS and incubated with ZIKV (MOI = 1). After incubation at 37 °C for 2 h, cells were washed with PBS and cultured in DMEM containing 2% FBS.
Vero, A549, or U251 cells were incubated with peptide or PBS at 37 °C for 2 h. […]
The effect of Hc-CATH on AXL was further confirmed in A549 and U251 cells. A549 or U251 cells were incubated with Hc-CATH (1.25, 2.5, and 5 μM) or PBS at 37 °C for 24 h, and the level of AXL was detected by WB and IF, respectively. […]

ZIKV [2] = test: ZIKV replication stage, U251 cells (peptide added after infection); type: cell-based, ZIKV strain PRVABC59; conditions: 2.5 μM after ZIKV infection, 48 h; NS3 Western blot
Method: B–I, Vero (B–G), A549 (H), or U251 (I) cells were incubated with ZIKV (MOI = 1) at 37 °C for 2 h, washed with PBS, and transferred with fresh DMEM containing 2% FBS and Hc-CATH (2.5 μM), AC5 (2.5 μM), LL-37 (2.5 μM), or PBS (solvent of peptide). After culture at 37 °C for 48 h, intracellular ZIKV RNA (B), NS3 protein (C, D, H, and I), E protein level (E, the scale bar represents 50 μm), and extracellular ZIKV titer (F and G) were detected by qPCR, Western blot, immunofluorescence staining, and plaque-forming assay, respectively.
Vero cells were incubated with ZIKV (MOI = 1) at 37 °C for 2 h, washed three times with PBS, and transferred with fresh DMEM containing 2% FBS and Hc-CATH (2.5 μM), AC5 (2.5 μM), LL-37 (2.5 μM), or PBS. After culture at 37 °C for 48 h, intracellular ZIKV RNA, NS3 protein, E protein, and extracellular ZIKV titer were detected by qPCR, WB, IF, and plaque-forming assay, respectively. The effect of Hc-CATH on ZIKV replication stage was further tested in A549 and U251 cells under the same condition, and intracellular ZIKV NS3 protein was detected by WB.

ZIKV [3] = test: Leakage of ZIKV genomic RNA (micrococcal nuclease digestion); set-up: species or system ZIKV strain PRVABC59; conditions: 1, 20, and 40 μM, 37 °C 2 h; micrococcal nuclease 37 °C 4 h; qPCR of PrM, E, Cap
Method: Figure 8 Hc-CATH directly inactivates ZIKV particles by disrupting viral membrane.A, schematic diagram of B–G (Hc-CATH-Vero-pre). B–G, direct inactivation of ZIKV by Hc-CATH. ZIKVs (MOI = 1) were incubated with Hc-CATH (2.5 μM), AC5 (2.5 μM), LL-37 (2.5 μM), or PBS (peptide solvent) at 37 °C for 2 h, and then the ZIKV–PBS mixture and ZIKV–peptide mixture were centrifugated at 100,000g for 70 min. The pellets were washed with PBS and centrifugated at 100,000g for 70 min again. The pellets were resuspended in PBS, added to Vero cells, and incubated for 2 h. Cells were washed with PBS and cultured in fresh DMEM containing 2% FBS. […] Absorbance at 450 nm was measured after reactions were stopped using 0.5 M sulfuric acid. […] After the residual RNase was inactivated, the undigested genomic RNA in the intact ZIKV particles was extracted and quantified by testing the genes of PrM, E, and Cap proteins, respectively. ∗∗p < 0.01 and ∗∗∗p < 0.001.
For assay of the disruption of viral membrane by Hc-CATH, ZIKV (about 10^5 PFU) was incubated with Hc-CATH (1, 20, and 40 μM), PBS, or 1% Triton X-100 (positive control) at 37 °C for 2 h. […] The residual RNase was inactivated, the undigested genomic RNA in the intact ZIKV particles was extracted and quantified by testing viral genes encoding membrane protein (PrM), E protein, and capsid (Cap) protein, respectively ([43]).

KFFKRLLKSVRRAVKKFRKKPRLIGLSTLL [Hc-CATH, cathelicidin antimicrobial peptide identified from the sea snake Hydrophis cyanocinctus]
susceptibility of U251 cells to ZIKV (NS3 protein) (ZIKV [1]): decreased the susceptibility | ZIKV infection in U251 cells, peptide added after infection (ZIKV [2]): did not inhibit ZIKV infection | genomic RNA of peptide-treated virions (leakage) (ZIKV [3]): digested by micrococcal nuclease
